Laboratory results as given in ChEMBL document CHEMBL4325854, “Synthetic small molecules as anti-biofilm agents in the struggle against antibiotic resistance” (Eur J Med Chem, 2019).

Key:
Staphylococcus aureus [1] = assay: Antibiofilm activity against methicillin-resistant Staphylococcus aureus; format: functional, organism-based; conditions: Staphylococcus aureus
Acinetobacter baumannii [2] = assay: Antibiofilm activity against Acinetobacter baumannii; format: functional, organism-based
Sortase A = biological target: T1, Sortase A (Staphylococcus aureus, UniProt Q9S446); assay: Inhibition of Staphylococcus aureus SrtA
T1 sequence (Q9S446 whole entry): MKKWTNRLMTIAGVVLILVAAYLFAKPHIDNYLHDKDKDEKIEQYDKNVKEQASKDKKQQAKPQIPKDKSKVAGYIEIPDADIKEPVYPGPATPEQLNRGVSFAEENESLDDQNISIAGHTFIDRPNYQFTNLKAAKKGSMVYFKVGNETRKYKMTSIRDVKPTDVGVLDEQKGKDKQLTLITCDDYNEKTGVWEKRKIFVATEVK

Staphylococcus aureus [3] = assay: Antibiofilm activity against Staphylococcus aureus ATCC 29213; format: functional, organism-based
Staphylococcus aureus [4] = assay: Antibiofilm activity against Staphylococcus aureus at 100 uM relative to control; format: functional
Staphylococcus aureus [5] = assay: Antibiofilm activity against Staphylococcus aureus ATCC 25923 at 1.5 ug/ml relative to control; format: functional
Staphylococcus aureus [6] = assay: Antibiofilm activity against Staphylococcus aureus ATCC 29213 at 1.5 ug/ml relative to control; format: functional
[7] = system: Staphylococcus epidermidis; assay: Antibiofilm activity against Staphylococcus epidermidis DSM 3269 at 1.5 ug/ml relative to control; format: functional
[8] = system: Staphylococcus epidermidis; assay: Antibiofilm activity against Staphylococcus epidermidis RP62A at 1.5 ug/ml relative to control; format: functional
Staphylococcus aureus [9] = assay: Antibiofilm activity against Staphylococcus aureus isolate 657 at 1.5 ug/ml relative to control; format: functional
Staphylococcus aureus [10] = assay: Antibiofilm activity against Staphylococcus aureus isolate 702 at 1.5 ug/ml relative to control; format: functional
Acinetobacter baumannii [11] = assay: Antibiofilm activity against Acinetobacter baumannii preformed biofilms; format: functional, organism-based
Staphylococcus aureus [12] = assay: Antibiofilm activity against methicillin-resistant Staphylococcus aureus BAA-1770; format: functional, organism-based
Staphylococcus aureus [13] = assay: Antibiofilm activity against methicillin-resistant Staphylococcus aureus BAA-1685; format: functional, organism-based
Staphylococcus aureus [14] = assay: Antibiofilm activity against methicillin-resistant Staphylococcus aureus ATCC 43300; format: functional, organism-based
Staphylococcus aureus [15] = assay: Antibiofilm activity against methicillin-resistant Staphylococcus aureus isolate 2; format: functional
Staphylococcus aureus [16] = assay: Antibiofilm activity against methicillin-resistant Staphylococcus aureus BAA-1707; format: functional
Staphylococcus aureus [17] = assay: Antibiofilm activity against methicillin-resistant Staphylococcus aureus ATCC BAA-44; format: functional, organism-based
Enterococcus faecalis = assay: Antibiofilm activity against Enterococcus faecalis ATCC 29212; format: functional
Staphylococcus aureus [18] = assay: Antibiofilm activity against Staphylococcus aureus BAA-1026; format: functional
Staphylococcus aureus [19] = assay: Antibiofilm activity against Staphylococcus aureus ATCC 29213 at 25 ug/ml relative to control; format: functional
[20] = system: Staphylococcus epidermidis; assay: Antibiofilm activity against Staphylococcus epidermidis at 25 ug/ml relative to control; format: functional
Pseudomonas aeruginosa [21] = assay: Antibiofilm activity against Pseudomonas aeruginosa PA14 assessed as inhibition of biofilm dispersion; format: functional, organism-based
Pseudomonas aeruginosa [22] = assay: Antibiofilm activity against Pseudomonas aeruginosa PAO1 assessed as inhibition of biofilm dispersion; format: functional, organism-based

What does the source list for `CCCCCc1ccc(C(=O)NCCn2cc(CCCCCc3c[nH]c(N)n3)nn2)cc1`?
IC50 (Staphylococcus aureus [1]): 15.2 to 34 µM; IC50 (Acinetobacter baumannii [2]): 15.2 to 34 µM

With `CCOC(=O)/C(=N/Nc1ccccc1)C(C)=O` as the compound, how does the IC50 (Sortase A) read?
The IC50 was 192 µM.

With `CCOC(=O)/C(=N/Nc1ccc(Cl)c(Cl)c1)C(=O)c1cc(C)nn1CC` as the compound, how does the IC50 (Staphylococcus aureus [3]) read?
Its IC50 is 1.7 µM.

Which results are given for `CC(=O)/C(=N\Nc1cccc(Cl)c1)C(=O)O`?
Activity (Staphylococcus aureus [4]): 39.2 - 68.3%; IC50 (Sortase A): 50 to 92 µM

Which Activity (Staphylococcus aureus [5]) does the source give for `O=C(c1cc(Cl)cc(Cl)c1O)c1[nH]c(Br)c(Br)c1Br` here?
The Activity was >60%.

What about the Activity (Staphylococcus aureus [6]) of the same compound?
The Activity was >60%.

What about the Activity [7] of the same compound?
The Activity was >60%.

What about the Activity [8] of the same compound?
Its Activity is >60%.

What about the Activity (Staphylococcus aureus [9]) of the same compound?
Its Activity is >60%.

And the Activity (Staphylococcus aureus [10])?
Its Activity is >60%.

How did the EC50 (Acinetobacter baumannii [11]) turn out when `CCCCOc1ccc(Br)c(/C=C(\C)Cn2cc(CCCCCc3c[nH]c(N)n3)nn2)c1F` was run?
The EC50 was 44.7 to 59.6 µM.

What about the EC50 (Staphylococcus aureus [1]) of the same compound?
Its EC50 is 4.5 to 9.8 µM.

`CCCCCc1ccc(C(=O)NCCn2cc(CCCCCc3c[nH]c(NCc4ccc(CCCC)cc4)n3)nn2)cc1` was tested. Which IC50 (Staphylococcus aureus [12]) did it give?
Its IC50 is 5.9 µM.

And the IC50 (Staphylococcus aureus [13])?
Its IC50 is 5.5 µM.

What about the IC50 (Staphylococcus aureus [14]) of the same compound?
The IC50 was 4.4 µM.

With `CC(=O)/C(=N\Nc1ccccc1)C(=O)O` as the compound, how does the Activity (Staphylococcus aureus [4]) read?
The Activity was 39.2 - 68.3%.

And the IC50 (Sortase A)?
The IC50 was 50 to 92 µM.

`COC(=O)Oc1c(Br)cc(Br)c2nc3ccccc3nc12` was tested. Which IC50 (Staphylococcus aureus [1]) did it give?
Its IC50 is 1.4 to 2.9 µM.

How did the MBEC (Staphylococcus aureus [15]) turn out when `Cc1ccc2c(Br)cc(Br)c(O)c2n1` [BROQUINALDOL] was run?
Its MBEC is 188 µM.

And the MBEC (Staphylococcus aureus [16])?
Its MBEC is 93 µM.

How did the IC50 (Staphylococcus aureus [17]) turn out when `O=C1NC(C(Cl)(Cl)Cc2ccccc2)O/C1=C\c1ccc(C(F)(F)F)cc1` (stereo not drawn) was run?
The IC50 was 1.2 µM.

For `Cc1cc(C(=O)/C(=N\Nc2ccc(Cl)c(Cl)c2)C(=O)O)no1`, which IC50 (Staphylococcus aureus [3]) is on record?
Its IC50 is 0.8 µM.

Which IC50 (Staphylococcus aureus [1]) does the source give for `O=C(Oc1c(Br)cc(Br)c2nc3ccccc3nc12)c1ccco1` here?
The IC50 was 1.4 to 2.9 µM.

What does the source list for `Clc1ccc(-c2csc(-c3ccc(-c4csc(-c5ccccc5)n4)cc3)n2)cc1`?
MBEC (Enterococcus faecalis): 16 µg/mL; MBEC (Staphylococcus aureus [18]): >1000 µg/mL

What does the source list for `O=C(c1cc(Br)ccc1O)c1[nH]c(Cl)c(Br)c1Br`?
Activity (Staphylococcus aureus [5]): >60%; Activity (Staphylococcus aureus [6]): >60%; Activity [7]: >60%; Activity [8]: >60%; Activity (Staphylococcus aureus [9]): >60%; Activity (Staphylococcus aureus [10]): >60%

Which results are given for `c1ccc(-c2nc(-c3ccc(-c4nc(-c5cccc6ccccc56)cs4)cc3)cs2)cc1`?
MBEC (Enterococcus faecalis): 4 µg/mL; MBEC (Staphylococcus aureus [18]): 250 µg/mL

With `Cc1nn(C)c([N-]C(=O)c2ccc(Cl)cc2)c1[N+]#N` as the compound, how does the Activity (Staphylococcus aureus [19]) read?
Its Activity is 69 - 96%.

What about the Activity [20] of the same compound?
Its Activity is 69 - 96%.

With `O=C(c1cc(Br)cc(Br)c1O)c1[nH]c(Br)c(Br)c1Br` as the compound, how does the Activity (Staphylococcus aureus [5]) read?
The Activity was >60%.

And the Activity (Staphylococcus aureus [6])?
Its Activity is >60%.

And the Activity [7]?
The Activity was >60%.

What about the Activity [8] of the same compound?
Its Activity is >60%.

And the Activity (Staphylococcus aureus [9])?
Its Activity is >60%.

And the Activity (Staphylococcus aureus [10])?
Its Activity is >60%.

For `CCCCc1ccc(C(=O)NCCn2cc(CCCCc3[nH]c(N)nc3-c3cnc4ccccc4c3)nn2)cc1`, which IC50 (Staphylococcus aureus [1]) is on record?
The IC50 was 4.2 µM.

With `CCCCCCCCCCNC(=O)CCCc1c[nH]c(N)n1` as the compound, how does the IC50 (Pseudomonas aeruginosa [21]) read?
The IC50 was 6 µM.

What about the IC50 (Pseudomonas aeruginosa [22]) of the same compound?
The IC50 was 8 µM.

Which IC50 (Staphylococcus aureus [1]) does the source give for `CCCCCCCc1ccc(NC(=O)CCn2cc(C[C@@]34CNC[C@@H]3Nc3ccccc34)nn2)cc1` here?
Its IC50 is 2.8 µM.

What does the source list for `Cc1nn(C)c([N-]C(=O)c2ccc(Cl)cc2Cl)c1[N+]#N`?
Activity (Staphylococcus aureus [19]): 69 - 96%; Activity [20]: 69 - 96%

`O=C(c1cc(Br)ccc1O)c1[nH]c(Br)c(Cl)c1Br` was tested. Which Activity (Staphylococcus aureus [5]) did it give?
The Activity was >60%.

And the Activity (Staphylococcus aureus [6])?
Its Activity is >60%.

And the Activity [7]?
Its Activity is >60%.

And the Activity [8]?
Its Activity is >60%.

And the Activity (Staphylococcus aureus [9])?
The Activity was >60%.

What about the Activity (Staphylococcus aureus [10]) of the same compound?
The Activity was >60%.

For `CCCCc1ccc(C(=O)NCCn2cc(CCCCc3[nH]c(N)nc3-c3ccc4c(c3)OCO4)nn2)cc1`, which IC50 (Staphylococcus aureus [1]) is on record?
The IC50 was 3.7 µM.

`CC(=O)/C(=N\Nc1ccc(Cl)c(Cl)c1)C(=O)O` was tested. Which Activity (Staphylococcus aureus [4]) did it give?
Its Activity is 39.2 - 68.3%.

What about the IC50 (Sortase A) of the same compound?
Its IC50 is 50 to 92 µM.
